Source: patent US20220289753A1, “SHP2 INHIBITORS” (IRBM S.P.A., priority 2019, published 2022)
Read-outs that look alike come from different tables or passages of the source.

Assays:
[1] = target: T1, SHP-2 enzyme (Met1-Leu525) (Homo sapiens, UniProt Q06124); assay: SHP2 inhibition enzymatic assay (DiFMUP substrate, IRS1 peptide activation); type: biochemical; details: SHP2 wt; activated by 500 nM IRS1 peptide; 75 μM DiFMUP substrate
T1 construct: synthetized by Origene, Met1-Leu525, cat #TP750155; purchased Origene TP750155
T1 sequence (Q06124 1-525): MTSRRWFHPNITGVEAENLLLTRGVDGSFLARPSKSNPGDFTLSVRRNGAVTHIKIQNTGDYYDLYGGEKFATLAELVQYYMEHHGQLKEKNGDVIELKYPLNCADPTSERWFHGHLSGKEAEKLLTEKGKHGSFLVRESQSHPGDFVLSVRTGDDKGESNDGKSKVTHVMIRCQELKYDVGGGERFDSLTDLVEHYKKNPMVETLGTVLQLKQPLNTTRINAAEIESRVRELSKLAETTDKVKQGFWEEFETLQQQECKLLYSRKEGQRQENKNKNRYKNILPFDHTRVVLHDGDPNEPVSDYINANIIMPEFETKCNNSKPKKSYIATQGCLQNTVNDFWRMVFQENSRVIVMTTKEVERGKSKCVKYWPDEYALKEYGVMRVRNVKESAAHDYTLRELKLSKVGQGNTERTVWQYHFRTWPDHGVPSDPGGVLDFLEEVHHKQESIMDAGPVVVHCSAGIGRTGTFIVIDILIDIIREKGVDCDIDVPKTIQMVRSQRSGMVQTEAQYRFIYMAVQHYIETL
Procedure, shortened: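 SHP-2 (Met1-Leu525, 0.5 nM final) preincubated 30 min with compounds and IRS1 activating peptide in HEPES pH 7.2 buffer with NaCl, KCl, EDTA, tween-20, 5 mM DTT. DiFMUP then added for 30 min at room temperature and fluorescence read. IC50 from four-parameter logistic fit of % inhibition.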

[2] = system: ERK phosphorylation in KYSE-520 cells; assay: Phospho-ERK cellular assay (Advanced phospho-ERK1/2 (Thr202/Tyr204) TR-FRET kit); type: cell-based; details: Homo sapiens, KYSE-520, 2 h, read-out: pERK IC50
Protocol: Phospho-ERK Cellular Assay
ERK phosphorylation was detected using the “Advanced phospho-ERK1/2 (Thr202/Tyr204)” TR-FRET kit (Cisbio, Cat #64AERPEG/H), following the manufacturer reagents and instructions. […] After an overnight incubation, cells were treated with DMSO serial diluted compounds and incubated for 2 h at 37° C. After incubation, 2 μL/well of 4× Lysis Buffer (Cisbio 64KL1FDF), were added and incubated with cells for 30 min on gentle shaking. Finally, lysates were added with 2 μL/well of Eu cryptate (donor) and D2 (acceptor) conjugated antibodies (as provided by the Cisbio kit #64AERPEG/H) diluted 1:100 in Detection Buffer (as provided by the Cisbio kit #64AERPEG/H). Plates were then sealed and incubated at room temperature in the dark. After an overnight incubation, the TR-FRET signal was detected on a suitable reader (Envision, PerkinElmer). The lower the TR-FRET signal the higher the higher the SHP2 inhibition in cells. […] The percentage activity is fitted against the compound dilutions with a four-parameter logistic regression. The inflection point (i.e. the concentration at which half-maximal inhibition is achieved) is the IC50.

[3] = KYSE-520 cells, 2 h at 37° C., TR-FRET

CC1(N)CCN(c2nc3ncc(Sc4cccnc4C(F)(F)F)nc3[nH]2)CC1 [Example 1, 4-methyl-1-(6-((2-(trifluoromethyl)pyridin-3-yl)thio)-1H-imidazo[4,5-b]pyrazin-2-yl)piperidin-4-amine]
IC50 [1]: < 500 nM | IC50 [2, 3]: 1000 to 5000 nM

N[C@@H]1CCCC12CCN(c1nc3ncc(Sc4cccnc4C(F)(F)F)nc3[nH]1)CC2 [Example 2, (R)-8-(6-((2-(trifluoromethyl)pyridin-3-yl)thio)-1H-imidazo[4,5-b]pyrazin-2-yl)-8-azaspiro[4.5]decan-1-amine]
IC50 [1]: < 500 nM | IC50 [2, 3]: 1000 to 5000 nM

N[C@@H]1CCCC12CCN(c1nc3ncc(Sc4cccc(Cl)c4Cl)nc3[nH]1)CC2 [Example 3, (R)-8-(6-((2,3-dichlorophenyl)thio)-1H-imidazo[4,5-b]pyrazin-2-yl)-8-azaspiro[4.5]decan-1-amine]
IC50 [1]: < 500 nM | IC50 [2, 3]: 1000 to 5000 nM

CC1(N)CCN(c2nc3nc(Sc4ccccc4C(F)(F)F)cnc3[nH]2)CC1 [Example 18, 4-methyl-1-(5-((2-(trifluoromethyl)phenyl)thio)-1H-imidazo[4,5-b]pyrazin-2-yl)piperidin-4-amine]
IC50 [1]: < 500 nM | IC50 [2, 3]: 1000 to 5000 nM

CC1(N)CCN(c2nc3ncc(Sc4cccc(Cl)c4Cl)nc3[nH]2)CC1 [Example 22, 1-(5-((2,3-dichlorophenyl)thio)-1H-imidazo[4,5-b]pyrazin-2-yl)-4-methylpiperidin-4-amine]
IC50 [1]: < 500 nM | IC50 [2, 3]: 1000 to 5000 nM

CC1(N)CCN(c2nc3nc(Sc4ccccc4Br)cnc3[nH]2)CC1 [Example 37, 1-(5-((2-bromophenyl)thio)-1H-imidazo[4,5-b]pyrazin-2-yl)-4-methylpiperidin-4-amine]
IC50 [1]: < 500 nM | IC50 [2, 3]: 1000 to 5000 nM

Cn1c(N2CCC(C)(N)CC2)nc2nc(Sc3cccnc3C(F)(F)F)cnc21 [Example 52, 4-methyl-1-(1-methyl-5-((2-(trifluoromethyl)pyridin-3-yl)thio)-1H-imidazo[4,5-b]pyrazin-2-yl)piperidin-4-amine]
IC50 [1]: < 500 nM | IC50 [2, 3]: > 5000 nM

CC1(N)CCN(c2nc3nc(Sc4cccc5ccccc45)cnc3[nH]2)CC1 [Example 60, 4-methyl-1-(5-(naphthalen-1-ylthio)-1H-imidazo[4,5-b]pyrazin-2-yl)piperidin-4-amine]
IC50 [1]: < 500 nM | IC50 [2, 3]: 1000 to 5000 nM

CC1(N)CCN(c2nc3nc(Sc4ccnc5ccccc45)cnc3[nH]2)CC1 [Example 61, 4-methyl-1-(5-(quinolin-4-ylthio)-1H-imidazo[4,5-b]pyrazin-2-yl)piperidin-4-amine]
IC50 [1]: < 500 nM | IC50 [2, 3]: 1000 to 5000 nM

CC1(N)CCN(c2nc3nc(Sc4ccnc5cccnc45)cnc3[nH]2)CC1 [Example 62, 1-(5-((1,5-naphthyridin-4-yl)thio)-1H-imidazo[4,5-b]pyrazin-2-yl)-4-methylpiperidin-4-amine]
IC50 [1]: < 500 nM | IC50 [2, 3]: 1000 to 5000 nM

CC1(N)CCN(c2nc3nc(Sc4cccc5nccnc45)cnc3[nH]2)CC1 [Example 71, 4-methyl-1-(5-(quinoxalin-5-ylthio)-1H-imidazo[4,5-b]pyrazin-2-yl)piperidin-4-amine]
IC50 [1]: < 500 nM | IC50 [2, 3]: 1000 to 5000 nM

CC1(N)CCN(c2nc3nc(Sc4ccccc4S(F)(F)(F)(F)F)cnc3[nH]2)CC1 [Example 74, 4-methyl-1-(5-((2-(pentafluoro-l6-sulfaneyl)phenyl)thio)-1H-imidazo[4,5-b]pyrazin-2-yl)piperidin-4-amine]
IC50 [1]: < 500 nM | IC50 [2, 3]: 1000 to 5000 nM

CC1(N)CCN(c2nc3nc(Sc4cccc5cccnc45)cnc3[nH]2)CC1 [Example 88, 4-methyl-1-(5-(quinolin-8-ylthio)-1H-imidazo[4,5-b]pyrazin-2-yl)piperidin-4-amine]
IC50 [1]: < 500 nM | IC50 [2, 3]: > 5000 nM

C[C@@H]1OCC2(CCN(c3nc4nc(Sc5cccnc5C(F)(F)F)cnc4[nH]3)CC2)[C@@H]1N [Example 96, (3S,4S)-3-methyl-8-(5-((2-(trifluoromethyl)pyridin-3-yl)thio)-1H-imidazo[4,5-b]pyrazin-2-yl)-2-oxa-8-azaspiro[4.5]decan-4-amine]
IC50 [1]: < 500 nM | IC50 [2, 3]: 1000 to 5000 nM

N[C@@H]1c2ccccc2CC12CCN(c1nc3nc(Sc4cccnc4C(F)(F)F)cnc3[nH]1)CC2 [Example 107, (S)-1′-(5-((2-(trifluoromethyl)pyridin-3-yl)thio)-1H-imidazo[4,5-b]pyrazin-2-yl)-1,3-dihydrospiro[indene-2,4′-piperidin]-1-amine]
IC50 [1]: < 500 nM | IC50 [2, 3]: < 1000 nM

FC(F)(F)c1ncccc1Sc1cnc2[nH]c(N3CCC4CCC(C3)N4)nc2n1 (centres unmarked) [Example 125, 2-(3,9-diazabicyclo[4.2.1]nonan-3-yl)-5-((2-(trifluoromethyl)pyridin-3-yl)thio)-1H-imidazo[4,5-b]pyrazine]
IC50 [2]: > 5000 nM

FC(F)(F)c1ncccc1Sc1cnc2nc(NC3CCNC4(CCC4)C3)[nH]c2n1 (centres unmarked) [Example 126, N-(5-azaspiro[3.5]nonan-8-yl)-6-((2-(trifluoromethyl)pyridin-3-yl)thio)-1H-imidazo[4,5-b]pyrazin-2-amine]
IC50 [2]: > 5000 nM

FC(F)(F)c1ncccc1Sc1cnc2[nH]c(NCC3CNC(c4ccccc4)C3)nc2n1 (centres unmarked) [Example 128, N-((5-phenylpyrrolidin-3-yl)methyl)-5-((2-(trifluoromethyl)pyridin-3-yl)thio)-1H-imidazo[4,5-b]pyrazin-2-amine]
IC50 [2]: > 5000 nM

CNc1nccc(Sc2cnc3[nH]c(N4CCC5(CC4)Cc4ccccc4[C@H]5N)nc3n2)c1Cl [Example 130, (S)-1′-(6-((3-chloro-2-(methylamino)pyridin-4-yl)thio)-1H-imidazo[4,5-b]pyrazin-2-yl)-1,3-dihydrospiro[indene-2,4′-piperidin]-1-amine]
IC50 [1]: < 500 nM | IC50 [2, 3]: < 1000 nM

Nc1nccc(Sc2cnc3[nH]c(N4CCC5(CC4)Cc4ccccc4[C@H]5N)nc3n2)c1Cl [Example 132, (S)-1′-(5-((2-amino-3-chloropyridin-4-yl)thio)-1H-imidazo[4,5-b]pyrazin-2-yl)-1,3-dihydrospiro[indene-2,4′-piperidin]-1-amine]
IC50 [1]: < 500 nM | IC50 [2, 3]: < 1000 nM

Cc1nc2nc(N3CCC(C)(N)CC3)[nH]c2nc1Sc1cccc(Cl)c1Cl [Example 133, 1-(5-((2,3-dichlorophenyl)thio)-6-methyl-1H-imidazo[4,5-b]pyrazin-2-yl)-4-methylpiperidin-4-amine]
IC50 [1]: < 500 nM | IC50 [2, 3]: > 5000 nM

CN1C(=O)C(F)(F)c2c(Sc3cnc4[nH]c(N5CCC6(CC5)Cc5ccccc5[C@H]6N)nc4n3)cccc21 [Example 134, (S)-4-((2-(1-amino-1,3-dihydrospiro[indene-2,4′-piperidin]-1′-yl)-1H-imidazo[4,5-b]pyrazin-5-yl)thio)-3,3-difluoro-1-methylindolin-2-one]
IC50 [1]: < 500 nM | IC50 [2, 3]: < 1000 nM

CC(=O)N1CC(F)(F)c2c(Sc3cnc4[nH]c(N5CCC6(CC5)Cc5ccccc5[C@H]6N)nc4n3)cccc21 [Example 135, (S)-1-(4-((2-(1-amino-1,3-dihydrospiro[indene-2,4′-piperidin]-1′-yl)-1H-imidazo[4,5-b]pyrazin-5-yl)thio)-3,3-difluoroindolin-1-yl)ethan-1-one]
IC50 [1]: < 500 nM | IC50 [2, 3]: < 1000 nM

N[C@@H]1c2ccccc2CC12CCN(c1nc3nc(Sc4cccc5c4OC(F)(F)O5)cnc3[nH]1)CC2 [Example 136, (S)-1′-(5-((2,2-difluorobenzo[d][1,3]dioxol-4-yl)thio)-1H-imidazo[4,5-b]pyrazin-2-yl)-1,3-dihydrospiro[indene-2,4′-piperidin]-1-amine]
IC50 [1]: < 500 nM | IC50 [2, 3]: < 1000 nM

N[C@@H]1c2cccnc2CC12CCN(c1nc3nc(Sc4cccnc4C(F)(F)F)cnc3[nH]1)CC2 [Example 139, (S)-1′-(5-((2-(trifluoromethyl)pyridin-3-yl)thio)-1H-imidazo[4,5-b]pyrazin-2-yl)-5,7-dihydrospiro[cyclopenta[b]pyridine-6,4′-piperidin]-5-amine]
IC50 [1]: < 500 nM | IC50 [2, 3]: < 1000 nM
